# Source: ChEMBL document CHEMBL5126503, “Renieramycin-type alkaloids from marine-derived organisms: Synthetic chemistry, biological activity and structural modification” (Eur J Med Chem, 2021)
# Where a name gives a salt, the structure may show the parent alone.
# Columns and labels:
# [1] = test system: QG-56; test: Cytotoxicity against human QG-56 cells assessed as cell growth inhibition incubated for 4 days by Cell counting kit-8 assay; type: functional, cell-based; settings: QG-56, 96 h
# [2] = test system: DU-145; test: Cytotoxicity against human DU-145 cells assessed as cell growth inhibition incubated for 4 days by Cell counting kit-8 assay; type: functional, cell-based; settings: DU-145, 96 h
# [3] = test system: HCT-116; test: Cytotoxicity against human HCT-116 cells assessed as cell growth inhibition incubated for 4 days by Cell counting kit-8 assay; type: functional, cell-based; settings: HCT-116, 96 h
# [4] = Cytotoxicity against human HEK293 cells assessed as cell growth inhibition; type: toxicity, cell-based
# [5] = test system: A549; test: Cytotoxicity against human A549 cells assessed as cell growth inhibition; type: functional, cell-based
# [6] = Cytotoxicity against mouse NIH3T3 cells assessed as cell growth inhibition at 50 ng/ml; type: toxicity, cell-based
# [7] = test system: Melanoma cell line; test: Cytotoxicity against human Melanoma cell line assessed as cell growth inhibition; type: functional, cell-based
# [8] = test system: HT-29; test: Cytotoxicity against human HT-29 cells assessed as cell growth inhibition; type: functional, cell-based
# [9] = test system: P388; test: Cytotoxicity against mouse P388 cells assessed as cell growth inhibition; type: functional, cell-based
# [10] = test system: NCI-H292; test: Antiproliferative activity against human NCI-H292 cells assessed as cell growth inhibition incubated for 4 hrs by MTT assay; type: functional, cell-based; settings: NCI-H292, 4 h
# [11] = test system: QG-56; test: Cytotoxicity against human QG-56 cells assessed as cell growth inhibition; type: functional, cell-based
# [12] = test system: HCT-116; test: Cytotoxicity against human HCT-116 cells assessed as cell growth inhibition; type: functional, cell-based
# [13] = test system: MDA-MB-435; test: Antiproliferative activity against human MDA-MB-435 cells assessed as cell growth inhibition by MTT colorimetric assay; type: functional, cell-based
# [14] = test system: HCT-116; test: Antiproliferative activity against human HCT-116 cells assessed as cell growth inhibition by MTT colorimetric assay; type: functional, cell-based
# [15] = test system: QG-56; test: Growth inhibition of human QG-56 cells; type: functional
# [16] = test system: KB; test: Antiproliferative activity against human KB cells assessed as cell growth inhibition by MTT assay; type: functional, cell-based
# [17] = test system: DU-145; test: Growth inhibition of human DU-145 cells; type: functional
# [18] = test system: BGC-823; test: Antiproliferative activity against human BGC-823 cells assessed as cell growth inhibition by MTT assay; type: functional, cell-based
# [19] = test system: A549; test: Antiproliferative activity against human A549 cells assessed as cell growth inhibition by MTT assay; type: functional, cell-based
# [20] = test system: HCT-8; test: Antiproliferative activity against human HCT-8 cells assessed as cell growth inhibition by MTT assay; type: functional, cell-based
# [21] = test system: HeLa; test: Antiproliferative activity against human HeLa cells assessed as cell growth inhibition by MTT assay; type: functional, cell-based
# [22] = test system: HCT-116; test: Growth inhibition of human HCT-116 cells; type: functional
# [23] = test system: Leishmania amazonensis; test: Antileishmanial activity against Leishmania amazonensis promastigotes assessed as reduction on parasite growth by green fluorescent protein based microplate reader assay; type: functional, organism-based
# [24] = test system: Streptococcus pneumoniae; test: Antimicrobial activity against Streptococcus pneumoniae assessed as reduction in microbial growth by disk diffusion assay; type: functional
# [25] = test system: Neisseria gonorrhoeae; test: Antimicrobial activity against Penicillin resistant Neisseria gonorrhoeae assessed as reduction in microbial growth by disk diffusion assay; type: functional
# [26] = test system: Neisseria gonorrhoeae; test: Antimicrobial activity against Neisseria gonorrhoeae assessed as reduction in microbial growth by disk diffusion assay; type: functional
# [27] = test system: Malme-3M; test: Growth inhibition of human Malme-3M cells; type: functional
# [28] = test system: Bacillus subtilis; test: Antimicrobial activity against Bacillus subtilis assessed as reduction in microbial growth by disk diffusion assay; type: functional
# [29] = test system: Streptococcus pneumoniae; test: Antimicrobial activity against Penicillin resistant Streptococcus pneumoniae assessed as reduction in microbial growth by disk diffusion assay; type: functional
# [30] = test system: HL-60; test: Cytotoxicity against human HL-60 cells assessed as cell growth inhibition; type: functional, cell-based
compound,measurement,setting,value
COC1=C(C)C(=O)C2=C(C1=O)[C@H](CO)N1[C@@H](C#N)[C@@H]3C(=O)c4c(O)c(C)c(OC)c(O)c4[C@H]([C@@H]1C2)N3C,IC50,[1],448 nM
same,IC50,[2],448 nM
same,IC50,[3],448 nM
CC(C)C[C@H](NC(=O)[C@H](Cc1ccccc1)NC(=O)c1cnccn1)B(O)O [BORTEZOMIB],IC50,[4],14000 nM
COC1=C(C)C(=O)C2=C(C1=O)[C@@H]1[C@@H]3CC4=C(C(=O)C(OC)=C(C)C4=O)[C@H](COC(C)=O)N3[C@@H](O)[C@H](C2)N1C,IC50,[5],0.0125 µg/mL
same,IC50,[1],0.76 nM
same,IC50,[2],0.49 nM
same,inhibition at 50 ng/ml,[6],100%
same,IC50,[7],0.0125 µg/mL
same,IC50,[8],0.0125 µg/mL
same,IC50,[3],0.57 nM
same,IC50,[9],0.0125 µg/mL
COC1=C(C)C(=O)C2=C(C1=O)[C@@H]1[C@@H]3CC4=C(C(=O)C(OC)=C(C)C4=O)[C@H](COC(=O)CNC(=O)OC(C)(C)C)N3[C@@H](C#N)[C@H](C2)N1C,IC50,[10],3.56 nM
COC1=C(C)C(=O)C2=C(C1=O)[C@@H]1[C@@H]3CC4=C(C(=O)C(OC)=C(C)C4=O)[C@H](COC(C)=O)N3[C@@H](C#N)[C@H](C2)N1C [CYANOJORUMYCIN],IC50,[11],0.68 nM
same,IC50,[12],< 0.38 nM
COc1cccc2c1C(=O)c1c(O)c3c(c(O)c1C2=O)C[C@@](O)(C(=O)CO)C[C@@H]3O[C@H]1C[C@H](N)[C@H](O)[C@H](C)O1 [DOXORUBICIN HYDROCHLORIDE],IC50,[5],310 nM
CCC(=O)OC[C@H]1C2=C(C[C@H]3[C@H]4C5=C(C[C@@H]([C@H](C#N)N13)N4C)C(=O)C(C)=C(OC)C5=O)C(=O)C(C)=C(OC)C2=O [JORUNNAMYCIN C],IC50,[13],16.3 nM
same,IC50,[1],2.8 nM
same,IC50,[2],0.32 nM
same,IC50,[14],27.3 nM
same,IC50,[3],1.5 nM
C/C=C(/C)C(=O)OC[C@H]1C2=C(C[C@H]3[C@H]4C5=C(C[C@@H](C(=O)N13)N4C)C(=O)C(C)=C(OC)C5=O)C(=O)C(C)=C(OC)C2=O [(-)-RENIERAMYCIN G],GI50,[15],1300 nM
same,IC50,[16],3500 nM
same,GI50,[17],1300 nM
same,IC50,[18],3500 nM
same,IC50,[19],3500 nM
same,IC50,[20],3500 nM
same,IC50,[21],3800 nM
same,GI50,[22],1100 nM
C/C=C(/C)C(=O)OC[C@H]1C2=C(C[C@H]3[C@H]4C5=C(C(=O)C(C)=C(OC)C5=O)[C@H](O)[C@@H](CN13)N4C)C(=O)C(C)=C(OC)C2=O,IC50,[23],0.2 µg/mL
C/C=C(/C)C(=O)OC[C@H]1C2=C(C=C3[C@H]4c5c(O)c(OC)c(C)c(O)c5C(=O)[C@@H](C(=O)N31)N4C)C(=O)C(C)=C(OC)C2=O [CRIBROSTATIN 5],MIC,[24],6.25 µg
same,MIC,[25],1.56 µg
same,MIC,[26],6.25 µg
same,GI50,[27],390 nM
same,MIC,[28],12.5 µg
same,MIC,[29],50 µg
C/C=C(/C)C(=O)OC[C@H]1C2=C(C[C@H]3[C@H]4C5=C(C(=O)C(C)=C(OC)C5=O)[C@H](OCC)[C@@H]([C@H](CC(C)=O)N13)N4C)C(=O)C(C)=C(O)C2=O,IC50,[5],> 100000 nM
same,IC50,[30],> 100000 nM
